According to patent publication US4436733A, “4"- And 3-ester derivatives of DMT and DMOT” (Eli Lilly and Company, priority 1982, dated 1984):
Read-outs that look alike come from different tables or passages of the source.

Experiments:
[1] = test system: Staphylococcus epidermidis EPI2; assay: standard agar-dilution assay, MIC; assay type: cell-based
Procedure: (§1) The MIC's in Table III were determined by standard agar-dilutionassays. The MIC's in Table IV were obtained using a conventional broth-dilution microtiter test.

[2] = test system: Streptococcus Group D X66; assay: standard agar-dilution assay, MIC; assay type: cell-based
Procedure: as §1

[3] = test system: Staphylococcus aureus X1.1; assay: standard agar-dilution assay, MIC; assay type: cell-based
Procedure: as §1

[4] = test system: Staphylococcus aureus S13E; assay: standard agar-dilution assay, MIC; assay type: cell-based
Procedure: as §1

[5] = test system: Streptococcus pyogenes C203; assay: standard agar-dilution assay, MIC; assay type: cell-based
Procedure: as §1

[6] = test system: Staphylococcus epidermidis EPI1; assay: standard agar-dilution assay, MIC; assay type: cell-based
Procedure: as §1

[7] = test system: Streptococcus pneumoniae Park I; assay: standard agar-dilution assay, MIC; assay type: cell-based
Procedure: as §1

Streptococcus Group 9960 = assay: standard agar-dilution assay, MIC; assay type: cell-based
Procedure: as §1

[8] = test system: Staphylococcus aureus X400; assay: standard agar-dilution assay, MIC; assay type: cell-based; conditions: Staphylococcus aureus X400, methicillin resistant strain
Procedure: as §1
^c Methicillinresistant-strain

[9] = test system: Pasteurella multocida 17E; assay: conventional broth-dilution microtiter test, MIC; assay type: cell-based; conditions: bovine isolate
Procedure: as §1

Mycoplasma hyorhinis = assay: conventional broth-dilution microtiter test, MIC; assay type: cell-based
Procedure: as §1

Mycoplasma synoviae = assay: conventional broth-dilution microtiter test, MIC; assay type: cell-based
Procedure: as §1

[10] = test system: Pasteurella multocida 60A; assay: conventional broth-dilution microtiter test, MIC; assay type: cell-based; conditions: avian isolate
Procedure: as §1

Streptococcus sp. 80 = assay: conventional broth-dilution microtiter test, MIC; assay type: cell-based
Procedure: as §1

Mycoplasma gallisepticum = assay: conventional broth-dilution microtiter test, MIC; assay type: cell-based
Procedure: as §1

Staphylococcus aureus = assay: conventional broth-dilution microtiter test, MIC; assay type: cell-based
Procedure: as §1

[11] = test system: Staphylococcus aureus V41; assay: standard agar-dilution assay, MIC; assay type: cell-based; conditions: Staphylococcus aureus V41, penicillin resistant strain
Procedure: as §1
^b Penicillinresistant strain

[12] = test system: Streptococcus pyogenes C203; assay: experimental bacterial infection in mice, ED50; assay type: in vivo; conditions: read-out: ED50 (effective dose to protect 50% of the test animals)
Procedure: The ester derivatives of this invention have shown in vivo antimicrobial activity against experimental bacterial infections caused by gram-positivebacteria. When two doses of test compound were administered to mice with experimental infections, the activity observed was measured as an ED50 value [effective dose in mg/kg to protect 50% of the test animals: see Warren Wick, et al., J. Bacteriol. 81, 233-235 (1961)].
^a mg/kg × 2; doses given 1 and 5 hours postinfection

[13] = C203, mice, oral, doses given 1 and 5 hours postinfection
[14] = C203, sc, mice, subcutaneous, doses given 1 and 5 hours postinfection

SMILES	MIC (minimal inhibitory concentration) [1]	MIC (minimal inhibitory concentration) [2]	MIC (minimal inhibitory concentration) [3]	MIC (minimal inhibitory concentration) [4]	MIC (minimal inhibitory concentration) [5]	MIC (minimal inhibitory concentration) [6]	MIC (minimal inhibitory concentration) [7]	MIC (minimal inhibitory concentration) (Streptococcus Group 9960)	MIC (minimal inhibitory concentration) [8]	MIC (minimal inhibitory concentration) [9]	MIC (minimal inhibitory concentration) (Mycoplasma hyorhinis)	MIC (minimal inhibitory concentration) (Mycoplasma synoviae)	MIC (minimal inhibitory concentration) [10]	MIC (minimal inhibitory concentration) (Streptococcus sp. 80)	MIC (minimal inhibitory concentration) (Mycoplasma gallisepticum)	MIC (minimal inhibitory concentration) (Staphylococcus aureus)	MIC (minimal inhibitory concentration) [11]	ED50 ([12]; C203, po)	ED50 [12, 13]	ED50 [12, 14]
CCC1OC(=O)CC(O)C(C)C(OC2OC(C)C(OC3CC(C)(O)C(OC(=O)Cc4ccccc4)C(C)O3)C(N(C)C)C2OC(C)=O)C(CC=O)CC(C)C(=O)C=CC(C)=CC1C (stereo not shown) [Compound 20, 2'-O-Acetyl-4"-O-Phenylacetyl-DMOT]	> 128	> 128	> 128	> 128	128	> 128	32	> 128	> 128	50	50	50	50	50	6.25	25	> 128	–	–	–
CCC1OC(=O)CC(O)C(C)C(OC2OC(C)C(OC3CC(C)(O)C(OC(=O)Cc4ccccc4)C(C)O3)C(N(C)C)C2OC(C)=O)C(CC=O)CC(C)C(=O)C=CC(C)=CC1COC(=O)Cc1ccccc1 (stereo not shown) [Compound 5, 2'-O-Acetyl-23,4"-Di-O-Phenylacetyl-DMT]	2	2	1	1	–	1	–	2	2	> 50	6.25	12.5	> 50	1.56	1.56	50	1	> 144 mg/kg	–	–
CCC(=O)OCC1C=C(C)C=CC(=O)C(C)CC(CC=O)C(OC2OC(C)C(OC3CC(C)(O)C(OC(=O)CC)C(C)O3)C(N(C)C)C2O)C(C)C(O)CC(=O)OC1CC (stereo not shown) [Compound 4, 23,4"-Di-O-Propionyl-DMT]	1	1	0.5	0.5	0.25	0.5	0.06	0.5	1	12.5	0.78	0.39	25	1.56	0.195	0.78	1	–	> 150 mg/kg	12 mg/kg
CCC(=O)OCC1C=C(C)C=CC(=O)C(C)CC(CC=O)C(OC2OC(C)C(OC3CC(C)(O)C(OC(=O)CC)C(C)O3)C(N(C)C)C2OC(C)=O)C(C)C(OC(=O)CC)CC(=O)OC1CC (stereo not shown) [Compound 9, 2'-O-Acetyl-3,23,4"-Tri-O-Propionyl-DMT]	2	1	1	1	0.5	1	0.25	1	1	> 50	0.78	0.78	> 50	1.56	0.78	1.56	1	–	–	–
CCC1OC(=O)CC(O)C(C)C(OC2OC(C)C(OC3CC(C)(O)C(OC(=O)Cc4ccccc4)C(C)O3)C(N(C)C)C2O)C(CC=O)CC(C)C(=O)C=CC(C)=CC1C (stereo not shown) [Compound 21, 4"-O-Phenylacetyl-DMOT]	16	8	8	8	4	8	0.5	16	16	> 50	3.12	6.25	50	6.25	0.78	12.5	16	–	–	–
CCC(=O)OC1CC(=O)OC(CC)C(C)C=C(C)C=CC(=O)C(C)CC(CC=O)C(OC2OC(C)C(OC3CC(C)(O)C(OC(=O)CC)C(C)O3)C(N(C)C)C2OC(C)=O)C1C (stereo not shown) [Compound 23, 2'-O-Acetyl-3,4"-Di-O-Propionyl-DMOT]	1	1	0.5	0.5	0.5	0.5	0.06	1	1	50	1.56	3.12	> 50	1.56	0.39	1.56	1	–	> 100 mg/kg	> 30 mg/kg
CCC1OC(=O)CC(O)C(C)C(OC2OC(C)C(OC3CC(C)(O)C(OC(=O)COc4ccccc4)C(C)O3)C(N(C)C)C2OC(C)=O)C(CC=O)CC(C)C(=O)C=CC(C)=CC1COC(=O)COc1ccccc1 (stereo not shown) [Compound 7, 2'-O-Acetyl-4",23-Di-O-Phenoxyacetyl-DMT]	128	32	32	32	8	32	1	16	64	> 50	0.78	–	> 50	0.78	0.78	12.5	64	–	–	–
CCC1OC(=O)CC(OC(=O)COc2ccccc2)C(C)C(OC2OC(C)C(OC3CC(C)(O)C(O)C(C)O3)C(N(C)C)C2OC(C)=O)C(CC=O)CC(C)C(=O)C=CC(C)=CC1COC(=O)COc1ccccc1 (stereo not shown) [Compound 8, 2'-O-Acetyl-3,23-Di-O-Phenoxyacetyl-DMT]	1	0.5	0.5	0.5	0.125	1	0.125	0.25	1	–	–	–	–	–	–	–	1	–	–	–
CCC(=O)OCC1C=C(C)C=CC(=O)C(C)CC(CC=O)C(OC2OC(C)C(OC3CC(C)(O)C(OC(=O)CC)C(C)O3)C(N(C)C)C2OC(C)=O)C(C)C(O)CC(=O)OC1CC (stereo not shown) [Compound 3, 2'-O-Acetyl-23,4"-Di-O-Propionyl-DMT]	1	1	0.5	0.5	0.25	0.5	0.125	1	1	12.5	0.39	0.78	12.5	0.78	0.097	0.78	1	–	–	–
